No end group written: not given here.
Experiments:
[1] = system: Con A-induced suppression; experiment: Reversal of Con A-induced suppression of the splenic plaque-forming cell (PFC) response to SRBC in mice; assay type: in vivo; settings: for Reversal of Con A-induced suppression (result in words): mice, PFC response to SRBC; for Activity / effective amount on a molar basis relative to the PF4 holoprotein: restoring suppressed immune responses in mice
Experimental: Concanavalin A (Miles--Yeda Ltd., Research Products, Israel) was reconstituted with saline and kept frozen. Dilutions from the frozen stock were stored at 4° C. and injected i.v. into mice one day prior to antigen, sheep erythrocytes (SRBC). SRBC were obtained from Colorado Serum Company (Denver, Colorado) washed, counted and injected intraperitoneally (i.p.) in mice. Human serum or platelet releasate was administered i.v. one to two hours before Con A i.v.
The spleens of the mice were assayed for plaque-forming cells (PFC) on day 5 after injection of sheep red blood cells. The assay employed was as follows: single-cell suspensions were prepared from individual spleens of mice. The cells were suspended in Hanks' Balanced Salt Solution (Gibco Laboratories, Grand Island, New York) and washed. Direct PFC were enumerated using the well-known method of Jerne, N.K. et al (in Cell-Bound Antibody, Amos, E. and Koprowsky, H. eds., Wistar Institute Press. pp. 109-111, […]) with the slide modification of Mishell, R.I. and Dutton, R.W. (J. Exp. Med. 126:423, 1967), both incorporated by reference. […]
When treated with thrombin or A23187 (Calcium ionophore), platelets also release alpha granule constituents other than PF4. In particular, they release LA-PF4 and PDGF. The inventors tested the ability of LA-PF4 and PDGF to overcome suppression induced by 5 μg Con A. […]
Mice were injected with 10 micrograms of Con A i.v. on day -1 (except in the positive control, which received no Con A) and on day 0 with 2.5×10^6 SRBC per mouse as in Example 2 above. On day -1, the mice also received either: Nothing (100% control), Con A only, platelet releasate (equivalent to the amount of PF4 holoprotein contained in the platelet releasate from 2×10^7 platelets or about 0.12 microgram/mouse) and various concentrations of the above-mentioned synthetic C-terminal peptide of human PF4.

[2] = system: spleen, lymph node and thymus cells; experiment: Absorption of immunoregulatory activity by cells from lymphoid organs, read out as reversal of Con A-induced suppression (PFC/spleen); assay type: in vivo, CB6F1 mouse
Experimental: The spleens of the mice were assayed for plaque-forming cells (PFC) on day 5 after injection of sheep red blood cells. The assay employed was as follows: single-cell suspensions were prepared from individual spleens of mice. The cells were suspended in Hanks' Balanced Salt Solution (Gibco Laboratories, Grand Island, New York) and washed. Direct PFC were enumerated using the well-known method of Jerne, N.K. et al (in Cell-Bound Antibody, Amos, E. and Koprowsky, H. eds., Wistar Institute Press. pp. 109-111, […]) with the slide modification of Mishell, R.I. and Dutton, R.W. (J. Exp. Med. 126:423, 1967), both incorporated by reference.
In order to confirm and expand this finding, 1 ml o serum, diluted 1:2, was absorbed twice for thirty minutes at 4° C. using half the number of cells for each absorption as are listed for spleen (Sp1), lymphnode (LN) and thymus (Thy) in Table 3. Each CB6F1 mouse received 0.2 ml of a 1:4 dilution of absorbed or unabsorbed serum i.v. one to two hours before administration of 2×10^6 SRBC i.v. Plaque-forming cell response was measured as in Example 2.
The experiments were performed exactly as described for the PF4 holoprotein in Example 4 above, except that 0.5 (Expt. 1) or 2.5 micrograms (Expt. 2) of the PF4 tridecapeptide was administered.

monocytes = settings: Osterman et al, Biochem. Biophys. Res. Comm. 107:130-135, 1982; cited from earlier work
[3] = 10 micrograms Con A, 0.7-1 μg Tridecapeptide
[4] = 10 micrograms Con A, 2.5-7 μg Tridecapeptide
[5] = 10 micrograms Con A, 2.5-7 μg Tridecapeptide on day -1, n 5-10

PDGF: platelet-derived growth factor, platelet alpha-granule constituent [reference compound]
Geom. Mean of PFC/Spleen On Day 5, Expt. 1 ([1]; 5 μg Con A, antilog of standard error ≤ 1.1, n = 4, PDGF 0.003 μg per mouse): 8,370 PFC/Spleen
Immunomodulatory activity against suppression induced by 5 μg Con A (result in words) ([1]; concentrations well below those in serum: PDGF 0.003 μg, LA-PF4 0.6 μg, purified PF4 0.2 to 0.6 μg per mouse): little or not activity
Reversal of Con A-induced suppression (result in words) [1]: no significant immunomodulating activity

Pro-Leu-Tyr-Lys-Lys-Ile-Ile-Lys-Lys-Leu-Leu-Glu-Ser-COOH (PLYKKIIKKLLES-OH) [Tridecapeptide, carboxy-terminal 13 amino acid residues of human PF4]
Reversal of immunosuppression induced by Con A (result in words) ([1]; 0.7-7 micrograms administered to mice): active in reversing the immunosuppression induced by Con A
Expt.1 % (of 100% control) ([1]; 10 micrograms Con A, 0.007 μg Tridecapeptide): 52%
Geom. Mean PFC/Spleen (SE), Expt.1 PFC ([1]; 10 micrograms Con A, 0.007 μg Tridecapeptide on day -1, n 5-10): 5,700(1.4) PFC/Spleen
Expt.1 % (of 100% control) ([1]; 10 micrograms Con A, 0.07 μg Tridecapeptide): 37%
Geom. Mean PFC/Spleen (SE), Expt.1 PFC ([1]; 10 micrograms Con A, 0.07 μg Tridecapeptide on day -1, n 5-10): 4,000(1.4) PFC/Spleen
Expt.1 % (of 100% control) [1, 3]: 95%
Expt.2 % (of 100% control) [1, 3]: 226%
Geom. Mean PFC/Spleen (SE), Expt.1 PFC ([1]; 10 micrograms Con A, 0.7-1 μg Tridecapeptide on day -1, n 5-10): 10,400(1.1) PFC/Spleen
Expt.1 % (of 100% control) [1, 4]: 99%
Expt.3 % (of 100% control) [1, 4]: 270%
Geom. Mean PFC/Spleen (SE), Expt.1 PFC [1, 5]: 10,900(1.2) PFC/Spleen
Geom. Mean PFC/Spleen (SE), Expt.3 PFC [1, 5]: 38,800(1,1) PFC/Spleen
Reversal of Con A-induced suppression (result in words) [1]: able to overcome Con A-induced suppression in a dose-dependent fashion
Activity / effective amount on a molar basis relative to the PF4 holoprotein [1]: less than that of the holoprotein
Activity / effective amount on a molar basis relative to the PF4 holoprotein ([1]; listed as PF4 tridecapeptide): About three times more
Geom mean PFC/Spleen, Expt. 1 Geom. Mean ([2]; SRBC + Con A, 0.5 μg/mouse tridecapeptide, unabsorbed or absorbed with cells): 23,488 PFC/Spleen
Geom mean PFC/Spleen, Expt. 2 Geom. Mean ([2]; SRBC + Con A, 2.5 μg/mouse tridecapeptide, unabsorbed or absorbed with cells): 38,790 PFC/Spleen
Absorption of the immunoregulatory activity by cells (result in words) ([2]; normal mouse spleen cells): spleen cells can absorb
Chemotactic activity for monocytes (result in words) (monocytes): potent chemotactic agent

Source: patent publication US4844895A, “Composition containing a peptide fragment of platelet factor four and method for restoring suppressed immune responses” (New York University, priority 1987, dated 1989)
